# Data from patent US20230310427A1, “NEW THERAPEUTIC USE OF RILPIVIRINE” (UNIVERSITY OF SOUTH AUSTRALIA, priority 2020, published 2023).
# pIC50: −log10 of the molar value.
# Experiments:
# Assay type in all cases: cell-based
# [1] = test system: Leukemia (HL-60, U-937, NB4, Jurkat, K-562), ovarian (A2780), prostate (PC3) and breast (T47D) cancer cell lines; assay: Cell viability assays (MTT and resazurin); conditions: 72 hour treatment; range over all cell lines tested; read-out: IC50, inhibition of cancer cell proliferation
# From the text: The MTT (3-(4,5-dimethylthiazol-2-yl)-2,5-diphenyl tetrazolium bromide; Sigma-Aldrich, St Louis, MO, United States of America) assay was used to determine half maximal inhibition values (IC50) in response to drug treatment using a number of different adherent cancer cell lines. The MTT was converted by metabolically active cells into an insoluble formazan product which was solubilised with 100% DMSO. The solubilised formazan gives absorbance at 560 nm which is directly proportional to the number of viable cells. The assay was carried out as previously described (Wang S et al., J Med Chem 47(7):1662-1675, 2004). The absorbance of treated wells was read using an EnVision multi-label plate reader. The resazurin assay was carried out for non-adherent cell lines as reported previously (Yu M et al., EJMC 95:116-126, 2015). IC50 values were determined by non-linear regression analysis using GraphPad Prism software.
# [2] = test system: auto-phosphorylation of Aurora A at Thr288 in HL-60 cells; assay: Western blot, Aurora A auto-phosphorylation; conditions: 24 hour, 5 µM, 10 µM and 20 µM
# Description: (§1) For Western blotting, cells (8×10^5) were seeded in a culture dish with 10 mL medium and incubated overnight at 37° C., 5% CO2. Untreated and compound-treated cells were lysed using phosphate lysis buffer and protease inhibitors. The protein concentration of each sample was determined by Bio-Rad DC™ protein assay (Bio-Rad Laboratories, Hercules, CA, United States of America). The protein was deactivated at 95° C. for 5 min and then resolved on 4-20% polyacrylamide gels by electrophoresis. Proteins were transferred to polyvinylidene difluoride (PDVF) membrane and blocked for 1 h with 10% skimmed milk (SM) in Tris-buffered saline and Tween (TBST). After adding primary antibody, the membranes were incubated overnight on a rocker in a 4° C. cold room. The following day, membranes were washed in TBST (4×20 min), incubated for at least 1 h at room temperature with the appropriate horseradish peroxidase conjugated secondary antibody. Following this, the blots were washed with TBST (4×20 min) again. The blots were then treated with Western blotting detection reagent and the band intensity was determined using a Bio-Rad ChemiDoc™ MP imaging system (Bio-Rad Laboratories). All the antibodies used for protein detection were from Cell Signaling Technology (Danvers, MA, United States of America). […]
# [3] = test system: auto-phosphorylation of Aurora A at Thr288 in NB4 cells; assay: Western blot, Aurora A auto-phosphorylation; conditions: 24 hour, 5 µM, 10 µM and 20 µM
# Description: as §1
# [4] = test system: cyclin D1 mRNA in A2780 cells; assay: RT-qPCR; conditions: 24 hours
# Description: (§2) The expression of different genes at the mRNA level was assayed by RT-qPCR. Briefly, cells (1×10^6) were seeded in 10 cm tissue culture plates and treated with compounds after having been cultured overnight at 37° C., 5% CO2. RNA was extracted using the High Pure RNA Isolation Kit (Roche Applied Science, Castle Hill, NSW, Australia) according to the manufacturer’s instructions. The concentration of RNA in each sample was determined using a NanoDrop® ND1000 spectrophotometer (ThermoFisher Scientific, Waltham, MA, United States of America). 1 µg of RNA was used in a 20 µL reverse transcription reaction using a Transcriptor First Strand cDNA Synthesis Kit (Roche Applied Science). RT-qPCR was completed using duplicate samples with cDNA using SYBR Green I dye (Roche Applied Science) and performed using Light Cycler LC96 (Roche Applied Science, Penzberg, Germany). GAPDH mRNA was used as a reference sequence and data was analysed using Bio-Rad CFX manager version 3.1.
# p53 mRNA in A2780 cells = assay: RT-qPCR; conditions: 24 hours
# Description: as §2
smiles,measurement,setting,value
"Cc1cc(/C=C/C#N)cc(C)c1Nc1ccnc(Nc2ccc(C#N)cc2)n1 [Rilpivirine, 4-[[4-[4-[(E)-2-cyanoethenyl]-2,6-dimethylanilino]pyrimidin-2-yl]amino]benzonitrile]",pIC50,[1],5.10 to 5.52
same,level of auto-phosphorylated Aurora A (Thr288),[2],marked decrease in the level of auto-phosphorylated protein
same,level of auto-phosphorylated Aurora A (Thr288),[3],marked decrease in the level of auto-phosphorylated protein
same,cyclin D1 mRNA,[4],decrease in cyclin D1mRNA was observed in a dose-dependent manner
same,p53 mRNA expression,p53 mRNA in A2780 cells; 20 µM,dramatic increase in p53 expression
same,p53 mRNA expression,p53 mRNA in A2780 cells; increasing concentration,upregulated p53 expression
